These results are taken from patent US8304448B2, “Method for the treatment of metabolic disorder containing benzazole derivatives as an active ingredient” (Korea Research Institute of Bioscience and Biotechnology, priority 2006, dated 2012).

For the assay, the system named is DGAT. The experiment in a line: Assay for inhibitory activity against DGAT ([14C]triacylglycerol formation, rat microsomal protein). The assay is classed as biochemical. The note with it: rat microsomal protein as enzyme source. The text has this:
The derivatives of Chemical Formula 1 in accordance with the present invention are found to inhibit the enzymatic activity of DGAT at a dose-dependent manner (refer to Table 2 and FIG. 1) as measured in a test in which [^14C]triacylglycerol was quantitatively analyzed after enzymatic reaction between 1,2-diacylglycerol and [^14C]palmitoyl-CoA, with microsomal proteins from rats serving as an enzyme source (refer to Example 1).
After enzymatic reaction between two substrates 1,2-diacylglycerol (Sigma, D0138) and [^14C]palmitoyl-CoA (Amersham, CFA583) with the microsomal protein of rat serving as an enzyme source in accordance with Coleman et al, Methods Enzymol., 98-103, 1992, the resulting product [^14C] triacylglycerol was measured for radioactivity. In detail, to a reaction buffer (175 mM Tris-HCl, pH 8.0, 20 μl bovine serum albumin (10 mg/ml), 100 mM MgCl2, 30 μM [^14C] palmitoyl-CoA (0.02 μCi, Amersham) and 200 μM 1,2-dioleoyl glycerol) was added 10 μl of a solution of the samples in dimethylsulfoxide (DMSO) and then 100˜200 μl of an isolated microsomal protein, followed by reaction at 25° C. for 10 min. The reaction was terminated with 1.5 ml of a mixture of 80:20:2 2-propanol:heptane:water (v:v:v). Thereafter, the [^14C] triacylglycerol thus formed was separated. In this regard, 1 ml of heptane and 0.5 ml of distilled water were added to the reaction mixture, which was then shaken. 1 ml of the supernatant thus formed was mixed with 2 ml of an alkaline ethanol solution (ethanol:0.5 N sodium hydroxide:water=50:10:40, v:v:v), followed by shaking. After being taken, 0.65 ml of the supernatant thus formed was measured for radioactivity using an LSC (liquid scintillation counter). The inhibitory activity against DGAT was calculated according to the following Mathematical Formula 1. The inhibitory effects of the benzazole derivatives on DGAT are summarized in Table 2, below while % DGAT inhibition is plotted against doses of compound 22 and 31 in FIG. 1.
T: Cpm of a test group in which a sample was added to an enzymatic buffer,
C: Cpm of a control in which no samples were added to an enzymatic buffer,
B: Cpm of a control in which a sample was added in the absence of any enzyme source.

Turning to `CN(C)C(=O)c1ccc2oc(COc3ccc(C45CC6CC(CC(C6)C4)C5)cc3)nc2c1` [compound 21, 2-(4-adamantan-1-yl-phenoxymethyl)-benzoxazole-5-carboxylic acid dimethylamide], the “DGAT (% inhibition in 25 μM)” value is 10.49%.
In the case of `COC(=O)c1ccc2[nH]c(COc3ccc([N+](=O)[O-])cc3)nc2c1` [compound 9, 2-(4-nitro-phenoxymethyl)-1H-benzoimidazole-5-carboxylic acid methyl ester], the “DGAT (% inhibition in 25 μM)” value was found to be 0.61%. The “DGAT (% inhibition in 5 μM)” value (5 μM) is recorded as −5.6%.
For `COC(=O)c1ccc2[nH]c(COc3ccc(Cl)cc3Cl)nc2c1` [compound 6, 2-(2,4-dichloro-phenoxymethyl)-1H-benzoimidazole-5-carboxylic acid methyl ester], the “DGAT (% inhibition in 25 μM)” value turned out to be 0.63%.
Still for that read-out and setting: under `COC(=O)c1ccc2nc(COc3ccc(C45CC6CC(CC(C6)C4)C5)cc3)oc2c1` [Cpd. 3, 2-(4-adamantan-1-yl-phenoxymethyl)-benzoxazole-6-carboxylic acid methyl ester] stands −5.34%; under `O=C(O)c1ccc2[nH]c(COc3ccc(C45CC6CC(CC(C6)C4)C5)cc3)nc2c1` [compound 14, 2-(4-adamantan-1-yl-phenoxymethyl)-1H-benzoimidazole-5-carboxylic acid], −13.17%; under `COC(=O)c1ccc2nc(COc3ccc(Cl)cc3Cl)oc2c1` [compound 5, 2-(2,4-dichloro-phenoxymethyl)-benzoxazole-6-carboxylic acid methyl ester], 1.98%.
Same read-out and setting: then `O=C(NCc1ccco1)c1ccc2nc(COc3ccc(Cl)cc3Cl)oc2c1` [compound 28, 2-(2,4-dichloro-phenoxymethyl)-benzoxazole-6-carboxylic acid (furan-2-ylmethyl)-amide], with −8.07%; and `O=C(NCCCn1ccnc1)c1ccc2[nH]c(COc3ccc(C45CC6CC(CC(C6)C4)C5)cc3)nc2c1` [compound 33, 2-(4-adamantan-1-yl-phenoxymethyl)-1H-benzoimidazole-5-carboxylic acid (3-imidazol-1-yl-propyl)-amide], with 16.99%; and `O=C(NCc1ccco1)c1ccc2nc(COc3ccc(C45CC6CC(CC(C6)C4)C5)cc3)oc2c1` [compound 27], with 13.26%.
Still for that read-out and setting: under `CC(C)(C)c1ccc(OCc2nc3ccc(C(=O)O)cc3o2)cc1` [compound 17, 2-(4-tert-butyl-phenoxymethyl)-benzoxazole-6-carboxylic acid] stands −29.81%; under `CN(C)CCNC(=O)c1ccc2[nH]c(COc3ccc(C45CC6CC(CC(C6)C4)C5)cc3)nc2c1` [compound 32, 2-(4-adamantan-1-yl-phenoxymethyl)-1H-benzoimidazole-5-carboxylic acid (2-dimethylamino-ethyl)-amide], −3.08%; under `O=C(O)c1ccc2nc(COc3ccc(Cl)cc3Cl)oc2c1` [compound 15, 2-(2,4-dichloro-phenoxymethyl)-benzoxazole-6-carboxylic acid], −13.03%.
As to `O=C(O)c1ccc2oc(COc3ccc(C45CC6CC(CC(C6)C4)C5)cc3)nc2c1` [compound 12, 2-(4-adamantan-1-yl-phenoxymethyl)-benzoxazole-5-carboxylic acid], the “DGAT (% inhibition in 25 μM)” value was −10.43%.
As to `O=C(O)c1ccc2oc(COc3ccc(Cl)cc3Cl)nc2c1` [compound 11, 2-(2,4-dichloro-phenoxymethyl)-benzoxazole-5-carboxylic acid], the “DGAT (% inhibition in 25 μM)” value is given as −16.48%.
